Test results taken from ChEMBL document CHEMBL4118174, “The discovery of VU0486846: steep SAR from a series of M1 PAMs based on a novel benzomorpholine core” (Bioorg Med Chem Lett, 2018).
Where a chain is given by its changes, count along the chain named.

Assays:
[1] = molecular target: T1, Muscarinic acetylcholine receptor M1 (Homo sapiens, UniProt P11229); experiment: Positive allosteric modulation of human muscarinic acetylcholine M1 receptor expressed in CHO cells assessed as potentiation of acetylcholine-induced calcium mobilization; format: functional, cell-based
T1 sequence (P11229 whole entry): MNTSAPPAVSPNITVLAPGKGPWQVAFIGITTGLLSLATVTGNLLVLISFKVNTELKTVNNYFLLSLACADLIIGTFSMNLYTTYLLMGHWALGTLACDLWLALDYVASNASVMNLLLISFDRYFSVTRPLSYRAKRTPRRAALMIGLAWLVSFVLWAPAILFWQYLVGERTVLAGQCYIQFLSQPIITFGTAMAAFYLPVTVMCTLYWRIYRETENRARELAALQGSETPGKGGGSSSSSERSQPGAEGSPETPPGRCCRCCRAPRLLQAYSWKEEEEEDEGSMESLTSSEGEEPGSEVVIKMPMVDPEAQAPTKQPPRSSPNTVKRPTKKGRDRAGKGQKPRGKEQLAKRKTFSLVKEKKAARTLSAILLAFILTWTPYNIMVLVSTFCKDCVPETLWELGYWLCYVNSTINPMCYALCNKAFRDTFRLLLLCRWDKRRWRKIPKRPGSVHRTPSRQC

[2] = molecular target: T2, Muscarinic acetylcholine receptor M1 (Homo sapiens) (UniProt P11229); experiment: Positive allosteric modulation of human muscarinic acetylcholine M1 receptor expressed in CHO cells assessed as potentiation of acetylcholine-induced calcium mobilization relative to acetylcholine; format: functional, cell-based
T2 sequence (whole entry): T1 sequence (P11229 whole entry)

[3] = Fraction unbound in plasma (unknown origin); format: ADME, cell-free
[4] = Brain to plasma permeability coefficient, Kp of compound in Sprague-Dawley rat at 0.20 to 0.25 mg/kg administered as iv cassette dose measured at 0.25 hrs post dose; format: ADME, organism-based; details: for Kp: brain, 0.25 h; for Kp at 0.25 h: Sprague-Dawley, brain and plasma
[5] = Fraction unbound in rat plasma; format: ADME, cell-free
[6] = Fraction unbound in human plasma; format: ADME, cell-free
[7] = Brain to plasma permeability coefficient, Kp of compound in mouse; format: ADME
[8] = molecular target: T1, Muscarinic acetylcholine receptor M1; experiment: Positive allosteric modulation of human muscarinic acetylcholine M1 receptor expressed in CHO-NFAT cells assessed as potentiation of acetylcholine-induced calcium mobilization after 4 hrs by CCF4-AM dye-based assay; format: functional, cell-based
[9] = molecular target: T1, Muscarinic acetylcholine receptor M1; experiment: Positive allosteric modulation of human muscarinic acetylcholine M1 receptor; format: functional
[10] = molecular target: T3, Muscarinic acetylcholine receptor M1 (Rattus norvegicus, UniProt P08482); experiment: Positive allosteric modulation of rat muscarinic acetylcholine M1 receptor; format: functional
T3 sequence (P08482 whole entry): T1 sequence (P11229 whole entry) with A5V, T254S, P309S, R320K, A337G, I413V

Rattus norvegicus = experiment: Cognitive enhancing effect in po dosed rat by novel object recognition test; format: functional; details: read-out: MED

Compound | EC50 ([1]; read-out: EC50) [nM] | %max [2] [%] | also measured
O=C(N[C@H]1CCCC[C@@H]1O)C1CN(Cc2ccc(-n3cccc3)cc2)c2ccccc2O1 (mixture of isomers) | 2100 | 81 | Fu [3]: < 0.001
O=C(N[C@H]1CCCC[C@@H]1O)C1CN(Cc2ccc(-n3cccn3)cc2)c2cccc(F)c2O1 (some centres not stated) | 140 | 89 | Kp [4]: 0.3 to 0.4
O=C(N[C@H]1CCCC[C@@H]1O)C1CN(Cc2ccc(C3CC3)nc2)c2ccccc2O1 (some centres not stated) | 2500 | 90 | EC50 ([1]; read-out: pEC50 (converted)): 2240 nM
O=C(N[C@H]1CCOC[C@@H]1O)C1CN(Cc2ccc(-n3cccn3)cc2)c2ccccc2O1 (some centres not stated) | 190 | 91 | Kp at 0.25 h [4]: 0.08
O=C(N[C@H]1CCCC[C@@H]1O)C1CN(Cc2ccc(Cl)nc2)c2ccccc2O1 (some centres not stated) | 7600 | 73 | EC50 ([1]; read-out: pEC50 (converted)): 7080 nM
Cc1ccn(-c2ccc(CN3CC(C(=O)N[C@H]4CCCC[C@@H]4O)Oc4ccccc43)cn2)n1 (some centres not stated) | 670 | 91 | –
O=C(NC1CCOCC1)C1CN(Cc2ccc(-n3cccn3)cc2)c2ccccc2O1 (configuration not stated) | 6600 | 69 | Kp at 0.25 h [4]: 1
O=C(N[C@H]1CCCC[C@@H]1O)C1CN(Cc2ccc(-n3cccn3)cc2)c2cc(F)ccc2O1 (some centres not stated) | 320 | 88 | EC50 ([1]; read-out: pEC50 (converted)): 309 nM; Kp [4]: 0.3 to 0.4; fraction unbound [5]: < 0.01; fraction unbound [6]: < 0.01
O=C(N[C@H]1CCCCC1=O)C1CN(Cc2ccc(-n3cccn3)cc2)c2ccccc2O1 (some centres not stated) | 2700 | 78 | –
Cc1ccc(CN2CC(C(=O)N[C@H]3CCCC[C@@H]3O)Oc3ccccc32)cn1 (some centres not stated) | 850 | 85 | EC50 ([1]; read-out: pEC50 (converted)): 813 nM
O=C(N[C@H]1CCCC[C@@H]1O)C1CN(Cc2ccc(-n3cccn3)cc2F)c2ccccc2O1 (mixture of isomers) | 1600 | 88 | Fu [3]: < 0.001
O=C(N[C@H]1CCC[C@@H]1O)C1CN(Cc2ccc(-n3cccn3)cc2)c2ccccc2O1 (some centres not stated) | 1200 | 77 | Kp at 0.25 h [4]: 0.09
O=C(N[C@H]1CCCC[C@@H]1O)C1CN(Cc2ccc(Br)nc2)c2ccccc2O1 (some centres not stated) | 1200 | 91 | EC50 ([1]; read-out: pEC50 (converted)): 1070 nM
O=C(N[C@H]1CCCC[C@@H]1O)C1CN(Cc2ccc(C(F)(F)F)nc2)c2ccccc2O1 (some centres not stated) | 3700 | 84 | –
O=C(N[C@H]1CCCC[C@@H]1O)C1CN(Cc2ccc(-n3cccn3)cc2)c2ccccc2O1 (mixture of isomers) | 920 | 77 | Kp [4]: 0.17; Kp [7]: 0.7; Fu [5]: > 0.11; fraction unbound [6]: ≥ 0.11
C=Cc1ccc(CN2CC(C(=O)N[C@H]3CCCC[C@@H]3O)Oc3ccccc32)cn1 (some centres not stated) | 700 | 89 | –
O=C(N[C@H]1CCCC[C@@H]1O)C1Cc2ccccc2N(Cc2ccc(-n3cccn3)cc2)C1 (mixture of isomers) | 1400 | 75 | –
COc1cccnc1NC(=O)C1CN(Cc2ccc(-n3cccn3)cc2)c2ccccc2O1 (configuration not stated) | 1700 | 80 | EC50 ([1]; read-out: pEC50 (converted)): 1620 nM
CC1(C(=O)N[C@H]2CCCC[C@@H]2O)CN(Cc2ccc(-n3cccn3)cc2)c2ccccc2O1 (mixture of isomers) | 7300 | 61 | –

Compound | EC50 ([1]; read-out: EC50) [nM] | %max [2] [%] | also measured
CC(C)(O)CNC(=O)C1CN(Cc2ccc(-n3cccn3)cc2)c2ccccc2O1 (configuration not stated) | 6400 | 60 | EC50 ([1]; read-out: pEC50 (converted)): 5890 nM
CN(C)c1ccc(CN2CC(C(=O)N[C@H]3CCCC[C@@H]3O)Oc3ccccc32)cn1 (some centres not stated) | 3800 | 89 | –
Cn1nccc1-c1ccc(CN2CC(C(=O)N[C@H]3CCCC[C@@H]3O)Oc3ccccc32)cn1 (some centres not stated) | 1300 | 94 | –
CC(O)(CNC(=O)C1CN(Cc2ccc(-n3cccn3)cc2)c2ccccc2O1)C1CC1 (configuration not stated) | 1900 | 80 | –
O=C(N[C@H]1CCCC[C@@H]1O)C1CN(Cc2ccc(-n3cccn3)cc2)c2ccc(F)cc2O1 (some centres not stated) | 2200 | 80 | Kp [4]: 0.3 to 0.4; fraction unbound [5]: < 0.01; fraction unbound [6]: < 0.01
O=C(Nc1ncccc1O)C1CN(Cc2ccc(-n3cccn3)cc2)c2ccccc2O1 (configuration not stated) | 710 | 75 | EC50 ([1]; read-out: pEC50 (converted)): 692 nM; Kp at 0.25 h [4]: 0.11
O=C(NC1CCCCC1)C1CN(Cc2ccc(-n3cccn3)cc2)c2ccccc2O1 (configuration not stated) | > 10000 | 35 | Kp at 0.25 h [4]: 1.1
O=C(NCC(O)C(F)(F)F)C1CN(Cc2ccc(-n3cccn3)cc2)c2ccccc2O1 (configuration not stated) | 2200 | 78 | –
O=C(N[C@H]1CCCC[C@@H]1O)C1CN(Cc2ccc(-n3cccn3)cc2)c2cc(Cl)ccc2O1 (mixture of isomers) | 2800 | 86 | Fu [3]: < 0.001
O=C(N[C@H]1CCCC[C@@H]1O)C1CN(Cc2ccc(-n3cccn3)cc2)c2c(F)cccc2O1 (some centres not stated) | 3180 to 3200 | 76 | EC50 ([1]; read-out: pEC50 (converted)): 3090 nM; Kp [4]: 0.3 to 0.4; fraction unbound [5]: < 0.01; fraction unbound [6]: < 0.01
Cc1ccc(Cc2cc3c(=O)n([C@H]4CCCC[C@@H]4O)cnc3c3ccccc23)cn1 [MK-7622] | – | – | EC50 [8]: < 100 nM
O=C(N[C@H]1CCCC[C@@H]1O)C1CN(Cc2ccc(-n3ccnc3)nc2)c2ccccc2O1 (some centres not stated) | 290 | 87 | –
Cn1cc(-c2ccc(CN3CC(C(=O)N[C@H]4CCCC[C@@H]4O)Oc4ccccc43)cn2)cn1 (some centres not stated) | 220 | 84 | –
O=C(N[C@H]1CCCC[C@@H]1O)C1CN(Cc2ccc(-n3cccc3)nc2)c2ccccc2O1 (some centres not stated) | 500 | 94 | –
O=C(N[C@H]1CCCC[C@@H]1O)C1CN(Cc2ccc(-n3cccn3)nc2)c2ccccc2O1 (mixture of isomers) | 780 | 92 | EC50 ([1]; read-out: pEC50 (converted)): 708 nM; Fu [3]: < 0.001
NC1CCCCC1NC(=O)C1CN(Cc2ccc(-n3cccn3)cc2)c2ccccc2O1 (configuration not stated) | 2300 | 62 | –
O=C(N[C@H]1CCCC[C@@H]1O)[C@H]1CN(Cc2ccc(-n3cccn3)cc2)c2ccccc2O1 | – | – | EC50 [9]: 250 nM; EC50 [10]: 250 nM; minimal effective dose (Rattus norvegicus): 3 mg/kg
O=C(Nc1ncccc1F)C1CN(Cc2ccc(-n3cccn3)cc2)c2ccccc2O1 (configuration not stated) | 2300 | 81 | –
